ChEMBL document CHEMBL1201862, “PubChem BioAssay data set” (2004)
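A five-concentration, 48-hour dose response in 96-well plates underlies each endpoint, interpolated linearly between surrounding concentrations. At the GI50, growth is halved.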 Calls of active or inactive are those of the source. Rule as the data show it: active = GI50 up to about 1.1 µM and inactive = higher.

How the values were obtained:
Assay in all cases: NCI anticancer screen, dose series, 48 h
786-0 = test system: 786-0
A549 = test system: A549
ACHN = test system: ACHN
CAKI-1 = test system: CAKI-1
CCRF-CEM = test system: CCRF-CEM
COLO 205 = test system: COLO 205
DLD-1 = test system: DLD-1
DMS-114 = test system: DMS-114
DMS-273 = test system: DMS-273
EKVX = test system: EKVX
HCC 2998 = test system: HCC 2998
HCT-15 = test system: HCT-15
HL-60 = test system: HL-60
HOP-18 = test system: HOP-18
HOP-62 = test system: HOP-62
HT-29 = test system: HT-29
IGROV-1 = test system: IGROV-1
K562 = test system: K562
KM-20L2 = test system: KM-20L2
KM12 = test system: KM12
LOX IMVI = test system: LOX IMVI
LXFL 529 = test system: LXFL 529
M14 = test system: M14
M19-MEL = test system: M19-MEL
MOLT-4 = test system: MOLT-4
Malme-3M = test system: Malme-3M
NCI-H226 = test system: NCI-H226
NCI-H23 = test system: NCI-H23
NCI-H460 = test system: NCI-H460
NCI-H522 = test system: NCI-H522
OVCAR-3 = test system: OVCAR-3
OVCAR-4 = test system: OVCAR-4
OVCAR-5 = test system: OVCAR-5
OVCAR-8 = test system: OVCAR-8
RPMI-8226 = test system: RPMI-8226
RXF 393 = test system: RXF 393
SF-268 = test system: SF-268
SF-295 = test system: SF-295
SF-539 = test system: SF-539
SK-MEL-28 = test system: SK-MEL-28
SK-MEL-2 = test system: SK-MEL-2
SK-MEL-5 = test system: SK-MEL-5
SK-OV-3 = test system: SK-OV-3
SN12C = test system: SN12C
SNB-19 = test system: SNB-19
SNB-75 = test system: SNB-75
SW-620 = test system: SW-620
TK-10 = test system: TK-10
UACC-257 = test system: UACC-257
UACC-62 = test system: UACC-62
UO-31 = test system: UO-31
XF498 = test system: XF498
A498 = test system: A498
HCT-116 = test system: HCT-116
HOP-92 = test system: HOP-92
SNB-78 = test system: SNB-78
SR = test system: SR
U-251 = test system: U-251

`N#CNC1=NC(CCCC(=O)Nc2cccc([N+](=O)[O-])c2)=C(c2nc3ccccc3[nH]2)C(N)N1` (stereo not given) was tested, and the GI50 (786-0) was > 100 µM (inactive), the GI50 (A549) was > 100 µM (inactive) and the GI50 (ACHN) was > 100 µM (inactive). The GI50 (CAKI-1) was > 100 µM (inactive), the GI50 (CCRF-CEM) was > 100 µM (inactive) and the GI50 (COLO 205) was > 100 µM (inactive). The GI50 (DLD-1) was > 100 µM (inactive), the GI50 (DMS-114) was > 100 µM (inactive) and the GI50 (DMS-273) was > 100 µM (inactive). For the same molecule, the GI50 (EKVX) was > 100 µM (inactive), the GI50 (HCC 2998) was > 100 µM (inactive) and the GI50 (HCT-15) was 76.7 µM. For the same molecule, the GI50 (HL-60) was > 100 µM (inactive), the GI50 (HOP-18) was 64.9 µM (inactive) and the GI50 (HOP-62) was > 100 µM (inactive). The GI50 (HT-29) was > 100 µM (inactive), the GI50 (IGROV-1) was > 100 µM (inactive) and the GI50 (K562) was > 100 µM (inactive). For the same molecule, the GI50 (KM-20L2) was > 100 µM (inactive), the GI50 (KM12) was > 100 µM (inactive) and the GI50 (LOX IMVI) was > 100 µM (inactive). The GI50 (LXFL 529) was > 100 µM (inactive), the GI50 (M14) was > 100 µM (inactive) and the GI50 (M19-MEL) was > 100 µM (inactive). For the same molecule, the GI50 (MOLT-4) was > 100 µM (inactive), the GI50 (Malme-3M) was > 100 µM (inactive) and the GI50 (NCI-H226) was > 100 µM (inactive). For the same molecule, the GI50 (NCI-H23) was > 100 µM (inactive), the GI50 (NCI-H460) was > 100 µM (inactive) and the GI50 (NCI-H522) was > 100 µM (inactive). The GI50 (OVCAR-3) was > 100 µM (inactive), the GI50 (OVCAR-4) was > 100 µM (inactive) and the GI50 (OVCAR-5) was > 100 µM (inactive). The GI50 (OVCAR-8) was > 100 µM (inactive), the GI50 (RPMI-8226) was > 100 µM (inactive) and the GI50 (RXF 393) was > 100 µM (inactive). The GI50 (SF-268) was > 100 µM (inactive), the GI50 (SF-295) was > 100 µM (inactive) and the GI50 (SF-539) was > 100 µM (inactive). For the same molecule, the GI50 (SK-MEL-28) was > 100 µM (inactive), the GI50 (SK-MEL-2) was > 100 µM (inactive) and the GI50 (SK-MEL-5) was > 100 µM (inactive). The GI50 (SK-OV-3) was > 100 µM (inactive), the GI50 (SN12C) was > 100 µM (inactive) and the GI50 (SNB-19) was > 100 µM (inactive). The GI50 (SNB-75) was > 100 µM (inactive), the GI50 (SW-620) was > 100 µM (inactive) and the GI50 (TK-10) was > 100 µM (inactive). The GI50 (UACC-257) was > 100 µM (inactive), the GI50 (UACC-62) was > 100 µM (inactive) and the GI50 (UO-31) was > 100 µM (inactive). The GI50 (XF498) was > 100 µM (inactive).

For `COCOCC[C@@H]1CC=CC(NC(=O)OCc2ccccc2)C1/C=C/C(=O)CCC1OCCO1` (stereo not given in full), the GI50 (786-0) was 48.4 µM (inactive), the GI50 (A498) was 71.1 µM (inactive) and the GI50 (A549) was 75.5 µM (inactive). For the same molecule, the GI50 (ACHN) was 36.6 µM (inactive), the GI50 (CAKI-1) was 44.2 µM (inactive) and the GI50 (CCRF-CEM) was 17.3 µM (inactive). The GI50 (COLO 205) was 20.7 µM (inactive), the GI50 (DLD-1) was 17.1 µM (inactive) and the GI50 (DMS-114) was 29.9 µM (inactive). For the same molecule, the GI50 (DMS-273) was 23 µM (inactive), the GI50 (EKVX) was 50.1 µM (inactive) and the GI50 (HCC 2998) was > 63.7 µM (inactive). The GI50 (HCT-116) was 17.7 µM (inactive), the GI50 (HCT-15) was 16.4 µM and the GI50 (HL-60) was 18.5 µM (inactive). For the same molecule, the GI50 (HOP-18) was 34.3 µM (inactive), the GI50 (HOP-62) was > 79.8 µM (inactive) and the GI50 (HOP-92) was > 54.8 µM (inactive). The GI50 (HT-29) was 38.9 µM (inactive), the GI50 (IGROV-1) was 56.6 µM (inactive) and the GI50 (K562) was 32.1 µM (inactive). For the same molecule, the GI50 (KM-20L2) was 34.9 µM (inactive), the GI50 (KM12) was 18.8 µM (inactive) and the GI50 (LOX IMVI) was 18.5 µM (inactive). For the same molecule, the GI50 (LXFL 529) was 22.4 µM (inactive), the GI50 (M14) was 29.5 µM (inactive) and the GI50 (M19-MEL) was 19.1 µM (inactive). The GI50 (MOLT-4) was 10.5 µM (inactive), the GI50 (Malme-3M) was 98.2 µM (inactive) and the GI50 (NCI-H226) was 46.7 µM (inactive). The GI50 (NCI-H23) was 37.6 µM (inactive), the GI50 (NCI-H460) was 38.6 µM (inactive) and the GI50 (NCI-H522) was 16.4 µM (inactive). The GI50 (OVCAR-3) was 27.2 µM (inactive), the GI50 (OVCAR-4) was 29 µM (inactive) and the GI50 (OVCAR-5) was > 72.8 µM (inactive). For the same molecule, the GI50 (OVCAR-8) was 19.1 µM (inactive), the GI50 (RPMI-8226) was 26.1 µM (inactive) and the GI50 (RXF 393) was 29.7 µM (inactive). For the same molecule, the GI50 (SF-268) was 34 µM (inactive), the GI50 (SF-295) was 48.1 µM (inactive) and the GI50 (SF-539) was 25.6 µM (inactive). For the same molecule, the GI50 (SK-MEL-28) was 42.1 µM (inactive), the GI50 (SK-MEL-2) was 25.4 µM (inactive) and the GI50 (SK-MEL-5) was 55.2 µM (inactive). For the same molecule, the GI50 (SK-OV-3) was 54.5 µM (inactive), the GI50 (SN12C) was 25.2 µM (inactive) and the GI50 (SNB-19) was > 100 µM (inactive). For the same molecule, the GI50 (SNB-75) was 28.8 µM (inactive), the GI50 (SNB-78) was 48.1 µM (inactive) and the GI50 (SR) was 3.79 µM (inactive). For the same molecule, the GI50 (SW-620) was 22.8 µM (inactive), the GI50 (TK-10) was 46.8 µM (inactive) and the GI50 (U-251) was 25.7 µM (inactive). For the same molecule, the GI50 (UACC-257) was 25.4 µM (inactive), the GI50 (UACC-62) was 25.5 µM (inactive) and the GI50 (UO-31) was 46.6 µM (inactive). The GI50 (XF498) was 34.4 µM (inactive).
